Results reported in PubChem BioAssay AID330 (DTP/NCI, 2004).
Values joined by “and” are separate entries in the source; they are usually repeats but may differ in a detail not shown here. Equal values may be shown once. Toxic doses and inconclusive results are not listed. The calls were made as follows: active = survival T/C of 150% or more; inactive = T/C below 125% in these data.

Test system: P388 leukemia ip, CD2F1 mice, survival T/C
Test: NCI In Vivo Anticancer Drug Screen. Data for tumor model P388 Leukemia (intraperitoneal) in CD2F1 (CDF1) mice
Conditions: endpoint: median survival time, higher = longer survival
How it was run: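 Mice carrying the transplanted tumor received test compound or vehicle. Survival was recorded in each group, and the value is the treated-group measurement divided by that of the vehicle-treated control group.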

[1] = dose: 100.0 mg/kg/injection, schedule: Q04DX002 (ip), vehicle: saline with Tween-80
[2] = dose: 200.0 mg/kg/injection, schedule: Q04DX002 (ip), vehicle: saline with Tween-80
[3] = dose: 50.0 mg/kg/injection, schedule: Q01DX005 (ip), vehicle: Klucel (hydroxypropylcellulose) (HPC)
[4] = dose: 100.0 mg/kg/injection, schedule: Q01DX005 (ip), vehicle: Klucel (hydroxypropylcellulose) (HPC)
[5] = dose: 200.0 mg/kg/injection, schedule: Q01DX005 (ip), vehicle: Klucel (hydroxypropylcellulose) (HPC)
[6] = dose: 12.5 mg/kg/injection, schedule: Q01DX009 (ip), vehicle: saline
[7] = dose: 25.0 mg/kg/injection, schedule: Q01DX009 (ip), vehicle: saline
[8] = dose: 12.5 mg/kg/injection, schedule: Q01DX005 (ip), vehicle: saline
[9] = dose: 25.0 mg/kg/injection, schedule: Q01DX005 (ip), vehicle: saline
[10] = dose: 50.0 mg/kg/injection, schedule: Q01DX005 (ip), vehicle: saline with Tween-80
[11] = dose: 50.0 mg/kg/injection, schedule: Q01DX005 (ip), vehicle: saline
[12] = dose: 400.0 mg/kg/injection, schedule: Q04DX002 (ip), vehicle: saline with Tween-80
[13] = dose: 50.0 mg/kg/injection, schedule: Q01DX009 (ip), vehicle: Klucel (hydroxypropylcellulose) (HPC)
[14] = dose: 100.0 mg/kg/injection, schedule: Q01DX009 (ip), vehicle: Klucel (hydroxypropylcellulose) (HPC)
[15] = dose: 200.0 mg/kg/injection, schedule: Q01DX009 (ip), vehicle: Klucel (hydroxypropylcellulose) (HPC)
[16] = dose: 50.0 mg/kg/injection, schedule: Q01DX009 (ip), vehicle: saline with Tween-80
[17] = dose: 100.0 mg/kg/injection, schedule: Q01DX009 (ip), vehicle: saline with Tween-80
[18] = dose: 200.0 mg/kg/injection, schedule: Q01DX009 (ip), vehicle: saline with Tween-80
[19] = dose: 25.0 mg/kg/injection, schedule: Q01DX009 (ip), vehicle: Klucel (hydroxypropylcellulose) (HPC)
[20] = dose: 12.5 mg/kg/injection, schedule: Q01DX009 (ip), vehicle: Klucel (hydroxypropylcellulose) (HPC)

Measured: T/C

NNc1ccc2cccc([N+](=O)[O-])c2n1
inactive: dose: 25.0 mg/kg/injection, schedule: Q01DX009 (ip), vehicle: other 106 % of control | dose: 50.0 mg/kg/injection, schedule: Q01DX009 (ip), vehicle: other 100 % of control | dose: 100.0 mg/kg/injection, schedule: Q01DX009 (ip), vehicle: other 100 % of control

C=C1C(=O)O[C@@H]2/C=C(/C)[C@@H](OC(C)=O)C/C=C(\C)C(O)[C@@H](OC(=O)/C(C)=C\C)C12 (stereo partly specified)
inactive: dose: 25.0 mg/kg/injection, schedule: Q04DX002 (ip), vehicle: saline with Tween-80 105 % of control | dose: 50.0 mg/kg/injection, schedule: Q04DX002 (ip), vehicle: saline with Tween-80 105 % of control | [1] 104 % of control | [2] 97 % of control

C=C(C)CN1C(=O)C(C)S/C1=N/N=C1/SCC(=O)N1C (stereo unspecified)
inactive: dose: 62.5 mg/kg/injection, schedule: Q01DX009 (ip), vehicle: saline 99 % of control | dose: 125.0 mg/kg/injection, schedule: Q01DX009 (ip), vehicle: saline 98 % of control

CCCCCCCCOP(=O)(CC(CP(=O)(O)OC)P(=O)(O)OC)OCCCCCCCC (stereo unspecified)
inactive: [3] 91 % of control | [4] 94 % of control | [5] 93 % of control

CN(C)CCOc1cccc2c1C(=O)c1ccccc1C2=O
inactive: dose: 12.5 mg/kg/injection, schedule: Q01DX009 (ip), vehicle: water 113 % of control | dose: 25.0 mg/kg/injection, schedule: Q01DX009 (ip), vehicle: water 105 % of control | dose: 50.0 mg/kg/injection, schedule: Q01DX009 (ip), vehicle: water 107 % of control | dose: 100.0 mg/kg/injection, schedule: Q01DX009 (ip), vehicle: water 109 % of control

CC(=O)Oc1ccccc1C(=O)OCc1ccccc1
inactive: [3] 94 % of control | [4] 92 % of control | [5] 100 % of control

Cc1cnc(Sc2ncccn2)c(C(=O)O)c1[N+](=O)[O-]
inactive: [3] 101 % of control | [4] 99 % of control | [5] 100 % of control

c1ccc(-c2cc[n+]3c4c2ccc2c(-c5ccccc5)cc[n+](c24)CC3)cc1
inactive: dose: 6.25 mg/kg/injection, schedule: Q01DX009 (ip), vehicle: saline 99 % of control | [6] 98 % of control and 100 % of control | [7] 104 % of control and 117 % of control

CC1(c2cccc[n+]2Cc2ccc(Cl)c(Cl)c2)OCCO1
inactive: [8] 100 % of control | [9] 99 % of control

Cc1ccc(S(=O)(=O)NC(=O)/N=C2\NC(=O)CS2)cc1
inactive: [10] 100 % of control | dose: 100.0 mg/kg/injection, schedule: Q01DX005 (ip), vehicle: saline with Tween-80 103 % of control | dose: 200.0 mg/kg/injection, schedule: Q01DX005 (ip), vehicle: saline with Tween-80 91 % of control

CCCC(O)(CCC)C1=NCCN1
inactive: [8] 103 % of control | [9] 102 % of control | [11] 99 % of control and 102 % of control

O=c1c2ccccc2oc2nc3ccccc3nc12
inactive: dose: 60.0 mg/kg/injection, schedule: Q01DX005 (ip), vehicle: Klucel (hydroxypropylcellulose) (HPC) 101 % of control | dose: 120.0 mg/kg/injection, schedule: Q01DX005 (ip), vehicle: Klucel (hydroxypropylcellulose) (HPC) 103 % of control

CCOc1ccc2cc(S(=O)(=O)O)ccc2c1N
inactive: dose: 100.0 mg/kg/injection, schedule: Q04DX003 (ip), vehicle: saline with Tween-80 100 % of control | dose: 200.0 mg/kg/injection, schedule: Q04DX003 (ip), vehicle: saline with Tween-80 90 % of control | dose: 400.0 mg/kg/injection, schedule: Q04DX003 (ip), vehicle: saline with Tween-80 100 % of control

C=CCC(C(=O)O)C1(C(=O)O)CCCCCC1 (stereo unspecified)
inactive: [1] 94 % of control | [2] 93 % of control | [12] 92 % of control

CCC(C)C(=O)C(Br)C(Br)c1ccccc1 (stereo unspecified)
inactive: [13] 101 % of control | [14] 100 % of control | [15] 101 % of control

CSCc1cc(Cl)ccc1N
inactive: [16] 97 % of control | [17] 97 % of control | [18] 97 % of control

Cc1cccc(O)c1C(=O)OC(C)c1cccc2nc3c(C(=O)O)cccc3nc12 (stereo unspecified)
inactive: dose: 0.5 mg/kg/injection, schedule: Q01DX005 (ip), vehicle: DMSO 108 % of control | dose: 1.0 mg/kg/injection, schedule: Q01DX005 (ip), vehicle: DMSO 92 % of control | dose: 2.0 mg/kg/injection, schedule: Q01DX005 (ip), vehicle: DMSO 100 % of control | dose: 4.0 mg/kg/injection, schedule: Q01DX005 (ip), vehicle: Klucel (hydroxypropylcellulose) (HPC) 100 % of control | dose: 6.25 mg/kg/injection, schedule: Q01DX005 (ip), vehicle: DMSO 119 % of control | dose: 8.0 mg/kg/injection, schedule: Q01DX005 (ip), vehicle: Klucel (hydroxypropylcellulose) (HPC) 101 % of control | dose: 12.5 mg/kg/injection, schedule: Q01DX005 (ip), vehicle: DMSO 114 % of control | dose: 16.0 mg/kg/injection, schedule: Q01DX005 (ip), vehicle: Klucel (hydroxypropylcellulose) (HPC) 101 % of control | dose: 32.0 mg/kg/injection, schedule: Q01DX005 (ip), vehicle: Klucel (hydroxypropylcellulose) (HPC) 87 % of control

Clc1nc(-c2ccccc2)ns1
inactive: [19] 86 % of control | [13] 106 % of control | [14] 102 % of control | [15] 104 % of control

O=Nc1ccc(Cl)cc1
inactive: dose: 12.5 mg/kg/injection, schedule: Q04DX003 (ip), vehicle: Klucel (hydroxypropylcellulose) (HPC) 103 % of control | dose: 25.0 mg/kg/injection, schedule: Q04DX003 (ip), vehicle: Klucel (hydroxypropylcellulose) (HPC) 101 % of control | dose: 50.0 mg/kg/injection, schedule: Q04DX003 (ip), vehicle: Klucel (hydroxypropylcellulose) (HPC) 93 % of control

O=C(CCl)Nc1ccccc1S(=O)(=O)F
inactive: [20] 100 % of control | [19] 107 % of control | [13] 96 % of control | [14] 107 % of control

O=C1C(Cl)=C(NC(=O)C2CCCCC2)C(=O)C(Cl)=C1NC(=O)C1CCCCC1
inactive: dose: 25.0 mg/kg/injection, schedule: Q01DX005 (ip), vehicle: Klucel (hydroxypropylcellulose) (HPC) 90 % of control | [3] 90 % of control | [4] 88 % of control | [5] 89 % of control

CN(C)CCOCC(O)(c1ccccc1)c1ccccc1
inactive: dose: 50.0 mg/kg/injection, schedule: Q01DX009 (ip), vehicle: suspension in saline 100 % of control | dose: 100.0 mg/kg/injection, schedule: Q01DX009 (ip), vehicle: suspension in saline 103 % of control

CCCCCCC(O)CCC(O)CCCCCCCC(=O)O (stereo unspecified)
inactive: [16] 103 % of control | [17] 92 % of control | [18] 100 % of control

CC(C)(C)N1CCC1
inactive: [3] 100 % of control | [4] 99 % of control

CN1CCC(=C2c3ccccc3Oc3ncccc32)CC1
inactive: [6] 102 % of control | [7] 111 % of control | [16] 102 % of control | dose: 50.0 mg/kg/injection, schedule: Q01DX009 (ip), vehicle: saline 99 % of control

N#CC1(C#N)C2C=CC(C3CC=CC32)C1(C#N)C#N (stereo unspecified)
inactive: dose: 3.13 mg/kg/injection, schedule: Q01DX009 (ip), vehicle: Klucel (hydroxypropylcellulose) (HPC) 106 % of control | dose: 6.25 mg/kg/injection, schedule: Q01DX009 (ip), vehicle: Klucel (hydroxypropylcellulose) (HPC) 98 % of control | [20] 110 % of control | [19] 108 % of control

Cc1cccc(-c2nnc(N)o2)c1[N+](=O)[O-]
inactive: dose: 60.0 mg/kg/injection, schedule: Q01DX005 (ip), vehicle: saline with Tween-80 108 % of control | dose: 120.0 mg/kg/injection, schedule: Q01DX005 (ip), vehicle: saline with Tween-80 108 % of control | dose: 240.0 mg/kg/injection, schedule: Q01DX005 (ip), vehicle: saline with Tween-80 101 % of control

Cn1c(=O)ccc2c(=O)c3ccccc3oc21
inactive: [1] 100 % of control | [2] 110 % of control | [12] 107 % of control

CCN=C(N)Nc1nc(C)c2cc(Cl)ccc2n1
inactive: [8] 104 % of control | [9] 104 % of control | [10] 109 % of control | [11] 111 % of control
